Source: US20240173332A1, “BENZO[…] TREATING OR PREVENTING RESPIRATORY SYNCYTIAL VIRUS INFECTION” (Pfizer Inc., priority 2021, published 2024)
Like-named read-outs stand apart in the source and are kept apart here.

Assays:
Cell cytotoxicity CC50 = format: cell-based; details: human, Hep-G2 cells; mean of at least two experiments unless (n = 1)
RSV A2 = assay: RSV plaque reduction assay in Hep-G2 cells; format: cell-based, respiratory syncytial virus (RSV); details: human respiratory syncytial virus, HepG2, 48 h, mean of at least two experiments
Description: Compounds were subjected to RSV plaque reduction assays according to the following protocol. Plaque EC50 and cell toxicity CC50 values are a mean of at least two experiments and figures are rounded to whole units.
Hep-G2 cells (ECACC, 85011430) were passaged in flasks and seeded in 24-well plates in DMEM containing antibiotics and supplemented with 10% FBS. During inoculation and subsequent incubation, cells were cultured in DMEM containing 2% FBS. 100 plaque forming unit/well of RSV (RSV A2 ECACC, 0709161v) was mixed with eight serial dilutions of compound. Subsequently, 100 μL of the virus/compound mixtures was added to confluent Hep-G2 cell monolayers. The cells and virus/compound mixtures were incubated at 37° C. in a humidified 5% CO2 incubator for 2 h prior to removal of the inoculum and addition of 1 mL of overlay (DMEM containing 2% FBS and 0.8% CMC) containing compound dilutions. The cells and were incubated at 37° C. in a humidified 5% CO2 incubator for 2 days.
Cells were washed with PBS before adding 75/25% v/v EtOH/MeOH, for 3 min. Fixative was removed and plates were washed with PBS. A pre-titrated amount of the primary antibody was added in 200 μL PBS/2% milk powder, and plates incubated for 90 min at 37° C. The plates were washed 3 times with PBS/0.05% Tween20 before addition of rabbit anti-goat horse radish peroxidase in 200 μL PBS/2% milk powder, and incubated for 1 h at 37° C. Following three wash steps with PBS/0.05% Tween20, 200 μL ready-to-use TrueBlue was added and plates were incubated at rt for 10-15 min before washing with water. After removal of water, plates were air-dried in the dark. Plates were scanned and analysed using the Immunospot S6 Macro analyser, which is equipped with BioSpot analysis software for counting immunostained plaques (virospots). Plaque counts were used to calculate % infection relative to the mean of the plaque count in the virus control wells for RSV. The EC50 value was calculated as 50% reduction in signal, respectively, by interpolation of inhibition curves fitted with a 4-parameter nonlinear regression with a variable slope in Dotmatics. Plaque EC50 and cell toxicity CC50 values are a mean of at least two experiments and figures are rounded to whole units.

[1] = Hep-G2 cells, RSV A2, 2 days, read-out: RSV A2 Plaque EC50

SMILES | CC50 (Cell cytotoxicity CC50) | EC50 (RSV A2; read-out: RSV A2 Plaque EC50, Hep-G2 cells, RSV A2, 2 days) | EC50 (RSV A2; [1])
CC(O)c1ccc(-c2nn3cccnc3c2C(=O)N[C@H]2N=C(c3ccccc3)c3ccccc3NC2=O)c(F)c1 (single isomer, unassigned) [Example 16-1, 2-[2-Fluoro-4-[(1S*)-1-hydroxyethyl]phenyl]-N-[(3S)-2-oxo-5-phenyl-1,3-dihydro-1,4-benzodiazepin-3-yl]pyrazolo[1,5-a]pyrimidine-3-carboxamide] | > 2.5 µM | 0.0082 µM | –
CC(O)c1ccc(-c2nn3cccnc3c2C(=O)N[C@H]2N=C(c3ccccc3)c3cccc(F)c3NC2=O)c(F)c1 (single isomer, unassigned) [Example 17-1, 2-[2-Fluoro-4-[(1S*)-1-hydroxyethyl]phenyl]-N-[(3S)-9-fluoro-2-oxo-5-phenyl-1,3-dihydro-1,4-benzodiazepin-3-yl]pyrazolo[1,5-a]pyrimidine-3-carboxamide] | > 2.5 µM | – | 0.0055 µM
CC(C)n1cc(-c2nn3cccnc3c2C(=O)N[C@H]2N=C(c3ccccc3)c3ccccc3NC2=O)cn1 [Example 5, N-[(3S)-2-oxo-5-phenyl-1,3-dihydro-1,4-benzodiazepin-3-yl]-2-(1-propan-2-ylpyrazol-4-yl)pyrazolo[1,5-a]pyrimidine-3-carboxamide] | > 25 µM | – | 0.066 µM
CS(=O)(=O)c1ccc(-c2nn3cccnc3c2C(=O)N[C@H]2N=C(c3ccccc3)c3ccccc3NC2=O)c(F)c1 [Example 8, 2-(2-Fluoro-4-methylsulfonylphenyl)-N-[(3S)-2-oxo-5-phenyl-1,3-dihydro-1,4-benzodiazepin-3-yl]pyrazolo[1,5-a]pyrimidine-3-carboxamide] | > 25 µM | – | 0.013 µM
O=C(N[C@H]1N=C(c2ccccc2)c2ccccc2NC1=O)c1c(-c2cc(CO)ccc2F)nn2cccnc12 [Example 9, 2-[2-Fluoro-5-(hydroxymethyl)phenyl]-N-[(3S)-2-oxo-5-phenyl-1,3-dihydro-1,4-benzodiazepin-3-yl]pyrazolo[1,5-a]pyrimidine-3-carboxamide] | > 25 µM | – | 0.06 µM
O=C(N[C@H]1N=C(c2ccccc2)c2cccc(F)c2NC1=O)c1c(-c2cc(CO)ccc2F)nn2cccnc12 [Example 10, 2-[2-Fluoro-5-(hydroxymethyl)phenyl]-N-[(3S)-9-fluoro-2-oxo-5-phenyl-1,3-dihydro-1,4-benzodiazepin-3-yl]pyrazolo[1,5-a]pyrimidine-3-carboxamide] | > 20.2 µM | – | 0.025 µM
O=C(N[C@H]1N=C(c2ccccc2)c2ccccc2NC1=O)c1c(-c2ccc(O)cc2F)nn2cccnc12 [Example 11, 2-(2-Fluoro-4-hydroxyphenyl)-N-[(3S)-2-oxo-5-phenyl-1,3-dihydro-1,4-benzodiazepin-3-yl]pyrazolo[1,5-a]pyrimidine-3-carboxamide] | > 25 µM | – | 0.047 µM
O=C(N[C@H]1N=C(c2ccccc2)c2cccc(F)c2NC1=O)c1c(-c2ccc(O)cc2F)nn2cccnc12 [Example 12, 2-(2-Fluoro-4-hydroxyphenyl)-N-[(3S)-9-fluoro-2-oxo-5-phenyl-1,3-dihydro-1,4-benzodiazepin-3-yl]pyrazolo[1,5-a]pyrimidine-3-carboxamide] | > 25 µM | – | 0.016 µM
CC(C)(O)Cc1ccc(-c2nn3cccnc3c2C(=O)N[C@H]2N=C(c3ccccc3)c3cccc(F)c3NC2=O)c(F)c1 [Example 14, 2-[2-Fluoro-4-(2-hydroxy-2-methylpropyl)phenyl]-N-[(3S)-9-fluoro-2-oxo-5-phenyl-1,3-dihydro-1,4-benzodiazepin-3-yl]pyrazolo[1,5-a]pyrimidine-3-carboxamide] | > 25 µM | – | 0.02 µM
CC(C)(O)Cc1ccc(-c2nn3cccnc3c2C(=O)N[C@H]2N=C(c3ccccc3)c3ccccc3NC2=O)c(F)c1 [Example 15, 2-[2-Fluoro-4-(2-hydroxy-2-methylpropyl)phenyl]-N-[(3S)-2-oxo-5-phenyl-1,3-dihydro-1,4-benzodiazepin-3-yl]pyrazolo[1,5-a]pyrimidine-3-carboxamide] | > 25 µM | – | 0.032 µM
CC(O)c1ccc(-c2nn3cccnc3c2C(=O)N[C@H]2N=C(c3ccccc3)c3ccccc3NC2=O)c(F)c1 (stereo partly drawn) [Example 16, 2-[2-Fluoro-4-(1-hydroxyethyl)phenyl]-N-[(3S)-2-oxo-5-phenyl-1,3-dihydro-1,4-benzodiazepin-3-yl]pyrazolo[1,5-a]pyrimidine-3-carboxamide] | > 25 µM | – | 0.0076 µM
CC(O)c1ccc(-c2nn3cccnc3c2C(=O)N[C@H]2N=C(c3ccccc3)c3cccc(F)c3NC2=O)c(F)c1 (stereo partly drawn) [Example 17, 2-[2-Fluoro-4-(1-hydroxyethyl)phenyl]-N-[(3S)-9-fluoro-2-oxo-5-phenyl-1,3-dihydro-1,4-benzodiazepin-3-yl]pyrazolo[1,5-a]pyrimidine-3-carboxamide] | > 25 µM | – | 0.0069 µM
CC(C)(O)c1ccc(-c2nn3cccnc3c2C(=O)N[C@H]2N=C(c3ccccc3)c3ccccc3NC2=O)c(F)c1 [Example 20, 2-[2-Fluoro-4-(2-hydroxypropan-2-yl)phenyl]-N-[(3S)-2-oxo-5-phenyl-1,3-dihydro-1,4-benzodiazepin-3-yl]pyrazolo[1,5-a]pyrimidine-3-carboxamide] | > 25 µM | – | 0.0087 µM
O=C(N[C@H]1N=C(c2ccccc2)c2ccccc2NC1=O)c1c(-c2ccc(CCO)cc2F)nn2cccnc12 [Example 21, 2-[2-Fluoro-4-(2-hydroxyethyl)phenyl]-N-[(3S)-2-oxo-5-phenyl-1,3-dihydro-1,4-benzodiazepin-3-yl]pyrazolo[1,5-a]pyrimidine-3-carboxamide] | > 25 µM | – | 0.042 µM
O=C(N[C@H]1N=C(c2ccccc2)c2cccc(F)c2NC1=O)c1c(-c2ccc(CCO)cc2F)nn2cccnc12 [Example 22, 2-[2-Fluoro-4-(2-hydroxyethyl)phenyl]-N-[(3S)-9-fluoro-2-oxo-5-phenyl-1,3-dihydro-1,4-benzodiazepin-3-yl]pyrazolo[1,5-a]pyrimidine-3-carboxamide] | > 25 µM | – | 0.025 µM
CCS(=O)(=O)c1ccc(-c2nn3cccnc3c2C(=O)N[C@H]2N=C(c3ccccc3)c3cccc(F)c3NC2=O)c(F)c1 [Example 23, 2-(4-Ethylsulfonyl-2-fluorophenyl)-N-[(3S)-9-fluoro-2-oxo-5-phenyl-1,3-dihydro-1,4-benzodiazepin-3-yl]pyrazolo[1,5-a]pyrimidine-3-carboxamide] | > 25 µM | – | 0.003 µM
NS(=O)(=O)c1ccc(-c2nn3cccnc3c2C(=O)N[C@H]2N=C(c3ccccc3)c3cccc(F)c3NC2=O)c(F)c1 [Example 24, N-[(3S)-9-Fluoro-2-oxo-5-phenyl-1,3-dihydro-1,4-benzodiazepin-3-yl]-2-(2-fluoro-4-sulfamoylphenyl)pyrazolo[1,5-a]pyrimidine-3-carboxamide] | > 25 µM | – | 0.049 µM
CN(C)S(=O)(=O)c1ccc(-c2nn3cccnc3c2C(=O)N[C@H]2N=C(c3ccccc3)c3cccc(F)c3NC2=O)c(F)c1 [Example 25, 2-[4-(Dimethylsulfamoyl)-2-fluorophenyl]-N-[(3S)-9-fluoro-2-oxo-5-phenyl-1,3-dihydro-1,4-benzodiazepin-3-yl]pyrazolo[1,5-a]pyrimidine-3-carboxamide] | > 25 µM | – | 0.0012 µM
